Experimental data as given in patent US10563243B2, “Bioavailability of metal ions” (priority 2014, dated 2020).

Experiments:
[1] = cited from earlier work
[2] = system: mixture of Actinomyces viscosus, Lactobacillus casei, Streptococcus oralis, Fusobacterium nucleatum, and Veillnoella parvula; assay: Zinc/copper bioavailability assay: bacterial viability by resazurin fluorescence, oral bacterial mixture
Description: (This bacterial mixture simulates the complex flora of the oral environment.) Subsequently, the cells were washed and mixed with 5 μg/ml resazurin solution. The fluorescence of the samples was read at 560 nm excitation and at 590 nm emission, and compared to standardized mixtures of viable and non-viable bacteria in order to determine the percentage of the total bacterial population that remained viable after treatment. Each salt was tested at two different concentrations of zinc. The total amount of zinc was consistent between the different salts.
The amount of soluble zinc in each solution was also determined by centrifuging the solutions to remove insoluble zinc, and by testing the supernatant using ICP-AA (inductively coupled plasma with atomic absorption).

[3] = system: mixture of Escherichia coli (45%), Staphylococcus aureus (45%) and Serratia marcescens (10%); assay: Zinc bioavailability assay: bacterial viability by resazurin fluorescence, skin bacterial mixture; format: cell-based; details: Table 5; 0.4% ZnO, 0.8% Zn Citrate, or mix, in deionized water; Triclosan positive control
Description: The incubation and detection methods used were as described in Example 1. […] Triclosan was used as a positive antimicrobial control for the experiment.

[4] = Table 6, 0.5% elemental copper in deionized water
[5] = Table 7, 0.05% elemental copper in deionized water

| Compound | theoretical solubility in water [1] | % viable [2, 4] [%] | % viable [2, 5] [%] | % viable [3] [%] | % viable ([2]; Table 2, zinc salt solution without added citrate) [%] |
| --- | --- | --- | --- | --- | --- |
| [Cl][Cu][Cl] [CuCl2] | 75.7 g/100 ml | 1.89 | 11.99 |  |  |
| [F][Cu][F] [CuF2] |  |  | 17.82 |  |  |
| [O]=[Cu] [CuO] |  | 42.73 | 78.67 |  |  |
| O=S(=O)([O-])[O-].[Cu+2] [CuSO4] | 20 g/100 ml | 5.82 | 13.98 |  |  |
| Oc1cc(Cl)ccc1Oc1ccc(Cl)cc1Cl [Triclosan, reference compound] |  |  |  | 18.83 |  |
| [O]=[Zn] [ZnO, zinc oxide] |  |  |  | 67.23 | 23.75 |
| Cu2O | insoluble |  |  |  |  |
